For one assay, the system named is E. coli BW25113 ΔmlaD. As to the kind of experiment: MIC, serial broth dilution, mlaD knockout strain vs wild type. The class given is cell-based, Escherichia coli. Conditions: mlaD deletion strain relative to control (E. coli BW25113); 3 replicates each; from optical density values of serial dilution plates, AMP in µg ml-1. Here is the method: What could be the mechanism behind the antagonistic action of this pathway on membrane- versus intracellular-targeting AMPs? Since MlaD is part of a protein complex, it may lead to a loss-of-function effect upon overexpression[41],[42]. To test this, we asked whether overexpression and deletion of mlaD cause similar changes in susceptibility to a representative set of membrane- and intracellular-targeting AMPs.
Minimum inhibitory concentrations (MIC) were determined with a standard serial broth dilution technique with a minor modification. Specifically, instead of a two-fold dilution series, smaller AMP concentration steps were used (typically 1.2-fold) for two reasons. […] Second, gene overexpressions caused typically only small changes in the MICs of AMPs and therefore higher resolution was required. The protocol was as follows. From a stock solution of an AMP, 12-steps serial dilution was prepared in fresh MS medium in 96-well microtiter plates. Each AMP was represented in 11 different concentrations (3 wells per AMP concentration per strain). Three wells contained only medium to check the growth in the absence of AMP. After overnight growth in MS medium supplemented with chloramphenicol, bacterial strains were diluted 20-fold into fresh MS medium and grown until the cell density reached OD600 ~1. Cells were induced by 100 µM of IPTG and incubated for 1 h at 30 °C with continuous shaking at 300 rpm. Following incubation, approximately half-million cells were inoculated into the wells of the 96-well microtiter plate with a 96‐pin replicator. We used three independent replicates for each strain and the corresponding control. Two rows in the 96-well plate contained only MS medium in order to obtain the background OD value of the medium. Plates were incubated at 30 °C with continuous shaking at 300 rpm. After 20–24 h of incubation, OD600 values were measured in a microplate reader (Biotek Synergy 2).
A mlaD knockout strain of E. coli BW25113 carrying a kanamycin resistance cassette in the position of the gene was selected from the KEIO collection. The resistance marker was removed using plasmid-borne (pFT-A) expression of FLP recombinase leading to excision of the kanamycin resistance cassette. Cassette excision was verified by a polymerase chain reaction using the primers mlaD_del_ver_Fw (5′- […]) and mlaD_del_ver_Rev (5′- […]).
Supplementary Figure 13. […] The bacterial susceptibility of the mutant to AMPs was tested by MIC determination. Growth is shown relative to growth in the absence of the corresponding AMP. The blue line represents the mlaD knockout strain and the orange line represents the control strain (wild-type E. coli BW25113). Error bars indicate the standard errors based on three biological replicates. Source data are provided in the Source Data file.
On the technique in general: In broth dilution the organism is exposed to a series of concentrations in liquid medium.

Assay [1] deals with AMP-evolved E. coli lines. The assay is described as follows: Cross-resistance / collateral sensitivity: relative MIC change of 38 laboratory-evolved AMP-resistant lines vs parental strain. The class given is cell-based, Escherichia coli. The settings on record: measured here. An excerpt:
Here, we extended this dataset by measuring susceptibility changes of the same evolved lines to four additional AMPs using identical protocols to represent AMPs from all four clusters (Supplementary Fig. 15a, see also Methods). Overall, the resulting dataset of susceptibility profiles provides a comprehensive map of cross-resistance and collateral sensitivity between AMPs representing various modes of action.
To characterize the cross-resistance of the 38 E. coli lineages we obtained relative MIC changes that are, the MIC values of the evolved lines compared to these of the parental strain, from two data sources. First, we used already measured relative MIC changes from Spohn et al. Supplementary data 4[20]. […] Second, we extended this dataset by measuring the relative MIC changes of the same evolved lines to four additional AMPs using identical protocol. […] In this way, AMPs from each cluster were represented in the dataset.
Supplementary Figure 15. […] Relative change in MIC was determined for each evolved line by comparing its MIC to the ancestral cell line (control). […] CAP18-adaped lines were not included in the analysis because CAP18 is known as a membrane-targeting AMP in the literature. c, Cross-resistance interactions are enriched between membrane-targeting AMPs that are in the same chemical-genetic clusters (i.e. AMP pairs within C1 and within C2 clusters) (Significant difference: ** P = 0.0082 from two-sided Fisher’s exact test, n = 61 and 62 for within cluster and between clusters, respectively). […] Source data are provided as a Source Data file.

This is an account of results in publication PMC6915728 (Nature Communications, 2019).

“GLRKRLRKFRNKIKEKLKKIGQKIQGFVPKLAPRTDY [CAP18, antimicrobial peptide, source rabbit; disrupts cell membrane; cluster C3]”: the “Average relative change in MIC” value in the assay with E. coli BW25113 ΔmlaD came to 2.25.

With “RRRPRPPYLPRPRPPPFFPPRLPPRIPPGFPPRFPPRFP [PR39, PR-39, cathelicidin, source pig; cluster C4]”, the “Relative change in MIC (MIC of the AMP-adpated line / MIC of the ancestral strain)” value in assay [1] (AMP-adapted line BAC5_3) came to 1.32; in assay [1] (AMP-adapted line BAC5_5) it was 1.464; in assay [1] (AMP-adapted line BAC5_7) it was 1.584; in assay [1] (AMP-adapted line BAC5_10) it was 1.57; in assay [1] (AMP-adapted line CAP18_2) it was 1; in assay [1] (AMP-adapted line CAP18_5) it was 0.915. Further, the “Relative change in MIC (MIC of the AMP-adpated line / MIC of the ancestral strain)” value in assay [1] (AMP-adapted line CAP18_6) was determined as 0.83; in assay [1] (AMP-adapted line CAP18_8), 1; in assay [1] (AMP-adapted line CAP18_10) it was 0.83; in assay [1] (AMP-adapted line HBD3_3), 1; in assay [1] (AMP-adapted line HBD3_6) it was 0.915; in assay [1] (AMP-adapted line HBD3_8) it was 1.1. The “Relative change in MIC (MIC of the AMP-adpated line / MIC of the ancestral strain)” value in assay [1] (AMP-adapted line HBD3_10) is given as 1.1; in assay [1] (AMP-adapted line LL37_1) it was 1.1; in assay [1] (AMP-adapted line LL37_3), 1.1; in assay [1] (AMP-adapted line LL37_6) it was 1.1; in assay [1] (AMP-adapted line LL37_7), 1.2; in assay [1] (AMP-adapted line LL37_10), 0.915. For the same sequence, the “Relative change in MIC (MIC of the AMP-adpated line / MIC of the ancestral strain)” value in assay [1] (AMP-adapted line PEX_1) came to 1; in assay [1] (AMP-adapted line PEX_4) it was 1; in assay [1] (AMP-adapted line PEX_5), 0.915; in assay [1] (AMP-adapted line PEX_6), 1; in assay [1] (AMP-adapted line PEX_7) it was 1; in assay [1] (AMP-adapted line PROA_2), 1. Also, the “Relative change in MIC (MIC of the AMP-adpated line / MIC of the ancestral strain)” value came to 0.915 in assay [1] (AMP-adapted line PROA_3); 1 in assay [1] (AMP-adapted line PROA_7); 1 in assay [1] (AMP-adapted line PROA_8); 1 in assay [1] (AMP-adapted line PROA_9); 1.728 in assay [1] (AMP-adapted line PXB_2); 1.44 in assay [1] (AMP-adapted line PXB_5). Further, the figures for the “Relative change in MIC (MIC of the AMP-adpated line / MIC of the ancestral strain)” value in assay [1] (AMP-adapted line PXB_6), in assay [1] (AMP-adapted line PXB_8) and in assay [1] (AMP-adapted line PXB_10) were 1.728, 1.44 and 1, respectively.
